Patent publication US20100022648A1, “ORAL USE OF AT LEAST ONE MONOUNSATURATED FATTY ACID FOR HAIR IMPROVEMENT” (L'OREAL, priority 2006, published 2010)
Marks after values point to notes of the source that are not given here.

Tested on: dermal fibroblasts
Experiment: Formation of glycation products in cultures of dermal fibroblasts (Dot Blot immunodetection, densitometric analysis)
Format: cell-based
Conditions: culture of dermal fibroblasts; for % GP relative to the control: GP = glycation products, Aminoguanidine 1 mg/ml, Petroselinic acid 0.885 mM, control = 100, p < 0.01; for decrease in the formation of glycation products relative to the control: same concentrations as Table 1
Procedure: Dermal fibroblasts are cultured by the usual techniques that are well known by a person skilled in the art.
The glycation products are quantified by densitometric analysis of the spots in immunodetection of the glycation products (Dot Blot method), relative to a control (culture of fibroblasts without addition of the product).
Thus, aminoguanidine reduces the amount of glycation product relative to the control by 58%.
In another case, the culture of fibroblasts is supplemented with petroselinic acid.

In the case of `N=C(N)NN` [Aminoguanidine, aminoguanidine], the “% GP relative to the control” value is reported as 42* %, the “% GP relative to the control” value (listed as aminoguanidine) is reported as 42% and the “decrease in the formation of glycation products relative to the control” value is reported as 58%.
In the case of `CCCCCCCCCCC/C=C\CCCCC(=O)O` [Petroselinic acid, petroselinic acid], the “% GP relative to the control” value is reported as 73* %, the “% GP relative to the control” value (listed as petroselinic acid) is reported as 73% and the “decrease in the formation of glycation products relative to the control” value is reported as 27%.
